Results reported in US10487092B2, “Pyrazolopyridinamines as MKNK1 and MKNK2 inhibitors” (BAYER PHARMA AKTIENGESELLSCHAFT, priority 2014, dated 2019).

target: human full-length MKNK1 (Homo sapiens (Human), UniProt Q9BUB5, T344D); test: MKNK1 kinase high ATP assay (TR-FRET); type: biochemical; settings: high ATP (2 mM), 15 min preincubation with enzyme; read-out: MKNK1 IC50
Protocol: MKNK1 Kinase High ATP Assay
MKNK1-inhibitory activity at high ATP of compounds of the present invention after their preincubation with MKNK1 was quantified employing the TR-FRET-based MKNK1 high ATP assay as described in the following paragraphs.
A recombinant fusion protein of Glutathione-S-Transferase (GST, N-terminally) and human full-length MKNK1 (amino acids 1-424 and T344D of accession number BAA 19885.1), expressed in insect cells using baculovirus expression system and purified via glutathione sepharose affinity chromatography, was purchased from Carna Biosciences (product no 02-145) and used as enzyme. As substrate for the kinase reaction the biotinylated peptide biotin-Ahx-IKKRKLTRRKSLKG (SEQ ID NO: 1, C-terminus in amide form) was used, which can be purchased e.g. from the company Biosyntan (Berlin-Buch, Germany).
For the assay 50 nL of a 100 fold concentrated solution of the test compound in DMSO was pipetted into a black low volume 384 well microtiter plate (Greiner Bio-One, Frickenhausen, Germany), 2 μL of a solution of MKNK1 in aqueous assay buffer [50 mM HEPES pH 7.5, 5 mM MgCl2, 1.0 mM dithiothreitol, 0.005% (v/v) Nonidet-P40 (Sigma)] was added and the mixture was incubated for 15 min at 22° C. to allow pre-binding of the test compounds to the enzyme before the start of the kinase reaction. Then the kinase reaction was started by the addition of 3 μL of a solution of adenosine-tri-phosphate (ATP, 3.3 mM=>final conc. in the 5 μL assay volume is 2 mM) and substrate (0.1 μM=>final conc. in the 5 μL assay volume is 0.06 μM) in assay buffer and the resulting mixture was incubated for a reaction time of 30 min at 22° C. The concentration of MKNK1 was adjusted depending of the activity of the enzyme lot and was chosen appropriate to have the assay in the linear range, typical concentrations were in the range of 0.003 μg/mL. The reaction was stopped by the addition of 5 μL of a solution of TR-FRET detection reagents (5 nM streptavidine-XL665 [Cisbio Bioassays, Codolet, France] and 1 nM anti-ribosomal protein S6 (pSer236)-antibody from Invitrogen [#44921G] and 1 nM LANCE EU-W1024 labeled ProteinG [Perkin-Elmer, product no. AD0071]) in an aqueous EDTA-solution (100 mM EDTA, 0.1% (w/v) bovine serum albumin in 50 mM HEPES pH 7.5).
The resulting mixture was incubated for 1 h at 22° C. to allow the formation of complex between the phosphorylated biotinylated peptide and the detection reagents. Subsequently the amount of phosphorylated substrate was evaluated by measurement of the resonance energy transfer from the Eu-chelate to the streptavidine-XL. Therefore, the fluorescence emissions at 620 nm and 665 nm after excitation at 350 nm were measured in a TR-FRET reader, e.g. a Rubystar (BMG Labtechnologies, Offenburg, Germany) or a Viewlux (Perkin-Elmer). The ratio of the emissions at 665 nm and at […] was taken as the measure for the amount of phosphorylated substrate. The data were normalised (enzyme reaction without inhibitor=0% inhibition, all other assay components but no enzyme=100% inhibition).

Sequence of human full-length MKNK1 (Q9BUB5 other isoform, or with tags, fused parts or gaps T344D): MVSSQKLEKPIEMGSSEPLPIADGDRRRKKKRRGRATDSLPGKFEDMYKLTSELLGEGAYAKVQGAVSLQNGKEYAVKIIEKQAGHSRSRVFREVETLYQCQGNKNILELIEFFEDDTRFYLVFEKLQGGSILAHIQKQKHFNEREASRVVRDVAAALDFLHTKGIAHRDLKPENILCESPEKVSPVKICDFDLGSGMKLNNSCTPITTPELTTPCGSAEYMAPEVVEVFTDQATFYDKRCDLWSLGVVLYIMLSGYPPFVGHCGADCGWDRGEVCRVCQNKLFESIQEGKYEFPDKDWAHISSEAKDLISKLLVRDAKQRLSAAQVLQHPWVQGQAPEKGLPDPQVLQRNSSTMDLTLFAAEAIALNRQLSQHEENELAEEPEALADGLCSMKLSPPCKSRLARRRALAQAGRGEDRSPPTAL

Structure (SMILES)	IC50 [nM]
CC1(O)CN(C(=O)[C@H]2CCc3c(sc4ncnc(Nc5cc6ccnn6cc5Cl)c34)C2)C1 [Example 52, (7S)-4-[(6-Chloropyrazolo[1,5-a]pyridin-5-yl)amino]-5,6,7,8-tetrahydro[1]benzothieno[2,3-d]pyrimidin-7-yl(3-hydroxy-3-methylazetidin-1-yl)methanone]	8
CN(CCO)C(=O)[C@H]1CCc2c(sc3ncnc(Nc4cc5ccnn5cc4Cl)c23)C1 [Example 55, (7S)-4-[(6-Chloropyrazolo[1,5-a]pyridin-5-yl)amino]-N-(2-hydroxyethyl)-N-methyl-5,6,7,8-tetrahydro[1]benzothieno[2,3-d]pyrimidine-7-carboxamide]	18
COCCN(C)C(=O)[C@H]1CCc2c(sc3ncnc(Nc4cc5ccnn5cc4Cl)c23)C1 [Example 56, (7S)-4-[(6-Chloropyrazolo[1,5-a]pyridin-5-yl)amino]-N-(2-methoxyethyl)-N-methyl-5,6,7,8-tetrahydro[1]benzothieno[2,3-d]pyrimidine-7-carboxamide]	41
CC(C)N(C)C(=O)[C@H]1CCc2c(sc3ncnc(Nc4cc5ccnn5cc4Cl)c23)C1 [Example 57, (7S)-4-[(6-Chloropyrazolo[1,5-a]pyridin-5-yl)amino]-N-methyl-N-(propan-2-yl)-5,6,7,8-tetrahydro[1]benzothieno[2,3-d]pyrimidine-7-carboxamide]	12
CN(C)[C@@H]1CCN(C(=O)[C@H]2CCc3c(sc4ncnc(Nc5cc6ccnn6cc5Cl)c34)C2)C1 [Example 58, (7S)-4-[(6-Chloropyrazolo[1,5-a]pyridin-5-yl)amino]-5,6,7,8-tetrahydro[1]benzothieno[2,3-d]pyrimidin-7-yl[(3R)-3-(dimethylamino)pyrrolidin-1-yl]methanone]	2
CN(C)[C@H]1CCN(C(=O)[C@H]2CCc3c(sc4ncnc(Nc5cc6ccnn6cc5Cl)c34)C2)C1 [Example 59, (7S)-4-[(6-Chloropyrazolo[1,5-a]pyridin-5-yl)amino]-5,6,7,8-tetrahydro[1]benzothieno[2,3-d]pyrimidin-7-yl[(3S)-3-(dimethylamino)pyrrolidin-1-yl]methanone]	1
O=C([C@H]1CCc2c(sc3ncnc(Nc4cc5ccnn5cc4Cl)c23)C1)N1C[C@H](O)[C@@H](O)C1 [Example 60, (7S)-4-[(6-Chloropyrazolo[1,5-a]pyridin-5-yl)amino]-5,6,7,8-tetrahydro[1]benzothieno[2,3-d]pyrimidin-7-yl[(3S,4S)-3,4-dihydroxypyrrolidin-1-yl]methanone]	18
CN(C)C1CCN(C(=O)[C@H]2CCc3c(sc4ncnc(Nc5cc6ccnn6cc5Cl)c34)C2)CC1 [Example 61, (7S)-4-[(6-Chloropyrazolo[1,5-a]pyridin-5-yl)amino]-5,6,7,8-tetrahydro[1]benzothieno[2,3-d]pyrimidin-7-yl[4-(dimethylamino)piperidin-1-yl]methanone]	13
CN(C)CCCN(CCO)C(=O)[C@H]1CCc2c(sc3ncnc(Nc4cc5ccnn5cc4Cl)c23)C1 [Example 63, (7S)4-[(6-Chloropyrazolo[1,5-a]pyridin-5-yl)amino]-N-[3-(dimethylamino)propyl]-N-(2-hydroxyethyl)-5,6,7,8-tetrahydro[1]benzothieno[2,3-d]pyrimidine-7-carboxamide]	15
C[C@@H]1CN(C(=O)[C@H]2CCc3c(sc4ncnc(Nc5cc6ccnn6cc5Cl)c34)C2)C[C@H](C)O1 [Example 64, (7S)-4-[(6-Chloropyrazolo[1,5-a]pyridin-5-yl)amino]-5,6,7,8-tetrahydro[1]benzothieno[2,3-d]pyrimidin-7-yl[(2R,6S)-2,6-dimethylmorpholin-4-yl]methanone]	10
CN(C)CCN1CCN(C(=O)[C@H]2CCc3c(sc4ncnc(Nc5cc6ccnn6cc5Cl)c34)C2)CC1 [Example 66, (7S)-4-[(6-Chloropyrazolo[1,5-a]pyridin-5-yl)amino]-5,6,7,8-tetrahydro[1]benzothieno[2,3-d]pyrimidin-7-yl4-[2-(dimethylamino)ethyl]piperazin-1-ylmethanone]	6
CCN(CCN(C)C)C(=O)[C@H]1CCc2c(sc3ncnc(Nc4cc5ccnn5cc4Cl)c23)C1 [Example 67, (7S)-4-[(6-Chloropyrazolo[1,5-a]pyridin-5-yl)amino]-N-[2-(dimethylamino)ethyl]-N-ethyl-3,5,6,7,8-tetrahydro[1]benzothieno[2,3-d]pyrimidine-7-carboxamide]	30
O=C([C@H]1CCc2c(sc3ncnc(Nc4cc5ccnn5cc4Cl)c23)C1)N1CCOCC1 [Example 68, (7S)-4-[(6-Chloropyrazolo[1,5-a]pyridin-5-yl)amino]-5,6,7,8-tetrahydro[1]benzothieno[2,3-d]pyrimidin-7-yl(morpholin-4-yl)methanone]	4
CCN(CCO)C(=O)[C@H]1CCc2c(sc3ncnc(Nc4cc5ccnn5cc4Cl)c23)C1 [Example 69, (7S)-4-[(6-Chloropyrazolo[1,5-a]pyridin-5-yl)amino]-N-ethyl-N-(2-hydroxyethyl)-5,6,7,8-tetrahydro[1]benzothieno[2,3-d]pyrimidine-7-carboxamide]	6
CCN(CCOC)C(=O)[C@H]1CCc2c(sc3ncnc(Nc4cc5ccnn5cc4Cl)c23)C1 [Example 70, (7S)-4-[(6-Chloropyrazolo[1,5-a]pyridin-5-yl)amino]-N-ethyl-N-(2-methoxyethyl)-5,6,7,8-tetrahydro[1]benzothieno[2,3-d]pyrimidine-7-carboxamide]	7
COCCN(CCOC)C(=O)[C@H]1CCc2c(sc3ncnc(Nc4cc5ccnn5cc4Cl)c23)C1 [Example 71, (7S)-4-[(6-Chloropyrazolo[1,5-a]pyridin-5-yl)amino]-N,N-bis(2-methoxyethyl)-5,6,7,8-tetrahydro[1]benzothieno[2,3-d]pyrimidine-7-carboxamide]	12
CN1C[C@@H]2C[C@H]1CN2C(=O)[C@H]1CCc2c(sc3ncnc(Nc4cc5ccnn5cc4Cl)c23)C1 [Example 72, (7S)-4-[(6-Chloropyrazolo[1,5-a]pyridin-5-yl)amino]-5,6,7,8-tetrahydro[1]benzothieno[2,3-d]pyrimidin-7-yl[(1S,4S)-5-methyl-2,5-diazabicyclo[2.2.1]hept-2-yl]methanone]	14
CN1C[C@H]2C[C@@H]1CN2C(=O)[C@H]1CCc2c(sc3ncnc(Nc4cc5ccnn5cc4Cl)c23)C1 [Example 73, (7S)-4-[(6-Chloropyrazolo[1,5-a]pyridin-5-yl)amino]-5,6,7,8-tetrahydro[1]benzothieno[2,3-d]pyrimidin-7-yl[(1R,4R)-5-methyl-2,5-diazabicyclo[2.2.1]hept-2-yl]methanone]	4
O=C([C@H]1CCc2c(sc3ncnc(Nc4cc5ccnn5cc4Cl)c23)C1)N1C[C@@H]2C[C@H]1CO2 [Example 74, (7S)-4-[(6-Chloropyrazolo[1,5-a]pyridin-5-yl)amino]-5,6,7,8-tetrahydro[1]benzothieno[2,3-d]pyrimidin-7-yl[(1S,4S)-2-oxa-5-azabicyclo[2.2.1]hept-5-yl]methanone]	22
O=C([C@H]1CCc2c(sc3ncnc(Nc4cc5ccnn5cc4Cl)c23)C1)N1C[C@H]2C[C@@H]1CO2 [Example 75, (7S)-4-[(6-Chloropyrazolo[1,5-a]pyridin-5-yl)amino]-5,6,7,8-tetrahydro[1]benzothieno[2,3-d]pyrimidin-7-yl[(1R,4R)-2-oxa-5-azabicyclo[2.2.1]hept-5-yl]methanone]	56
C[C@H]1COCCN1C(=O)[C@H]1CCc2c(sc3ncnc(Nc4cc5ccnn5cc4Cl)c23)C1 [Example 76, (7S)-4-[(6-Chloropyrazolo[1,5-a]pyridin-5-yl)amino]-5,6,7,8-tetrahydro[1]benzothieno[2,3-d]pyrimidin-7-yl[(3S)-3-methylmorpholin-4-yl]methanone]	7
C[C@@H]1COCCN1C(=O)[C@H]1CCc2c(sc3ncnc(Nc4cc5ccnn5cc4Cl)c23)C1 [Example 77, (7S)-4-[(6-Chloropyrazolo[1,5-a]pyridin-5-yl)amino]-5,6,7,8-tetrahydro[1]benzothieno[2,3-d]pyrimidin-7-yl[(3R)-3-methylmorpholin-4-yl]methanone]	21
